Active and inactive are the calls of the source.
Columns and labels:
[1] = microbe, parasite or virus in culture; type: functional; conditions: Mycobacterium tuberculosis
Beta-galactosidase = Beta-galactosidase (Escherichia coli, UniProt Q8VNN2); test: detection-enzyme interference by beta-gal modulators – biochemical, E. coli enzyme, set 3, artefact control for CCR6 antagonist project, dose response (AID 504712); type: functional
[2] = Luminescence Cell-Based Dose Retest to Confirm Inhibitors of Cancer Stem Cells. [Related pubchem assays (depositor defined):AID2717, AID2721]; type: functional; conditions: Homo sapiens
[3] = molecular target: Protein phosphatase methylesterase 1 (Homo sapiens, UniProt Q9Y570); test: endogenous PME-1 and serine hydrolase inhibition – cell lysate, mouse brain cytosol, FP-rhodamine, gel ABPP, selectivity assay for PME-1 inhibitor project, dose response, panel member PME-1 Assay Panel member description: Inhibition of endogenously expressed PME-1 (AID 2366)
Large T antigen = Large T antigen (Simian virus 40, UniProt P03070); type: functional, Betapolyomavirus macacae;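 also: Confirmatory-stage PubChem screen for compounds that inhibit SV40 T antigen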
[4] = bead-based luminescence quenchers, dual-tagged ARNT – biochemical, AlphaScreen, cherry-pick, artefact control for ARNT-TACC3 interaction inhibitor project, dose response (AID 651705); type: functional;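 also: AlphaScreen bead proximity signal that flags compounds interfering with the detection technology; potency reflects signal decrease which marks the compound as an assay artifact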
ORF 73 = ORF 73 (Human herpesvirus 8, UniProt O40947); test: KSHV LANA DNA-binding disruption – biochemical, fluorescence polarization, cherry-picked samples, dose response (AID 504725); design: species or system Human gammaherpesvirus 8;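 also: fluorescence polarization of a labeled DNA duplex reporting LANA DNA binding; potency is for inhibitors that block LANA binding to the DNA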
[5] = molecular target: T1, Zinc finger protein mex-5 (Caenorhabditis elegans, UniProt Q9XUB2); test: potency of MEX-5 RNA-binding blockers – biochemical, C. elegans, fluorescence polarization, dose response (AID 1960)
T1 sequence (Q9XUB2 whole entry): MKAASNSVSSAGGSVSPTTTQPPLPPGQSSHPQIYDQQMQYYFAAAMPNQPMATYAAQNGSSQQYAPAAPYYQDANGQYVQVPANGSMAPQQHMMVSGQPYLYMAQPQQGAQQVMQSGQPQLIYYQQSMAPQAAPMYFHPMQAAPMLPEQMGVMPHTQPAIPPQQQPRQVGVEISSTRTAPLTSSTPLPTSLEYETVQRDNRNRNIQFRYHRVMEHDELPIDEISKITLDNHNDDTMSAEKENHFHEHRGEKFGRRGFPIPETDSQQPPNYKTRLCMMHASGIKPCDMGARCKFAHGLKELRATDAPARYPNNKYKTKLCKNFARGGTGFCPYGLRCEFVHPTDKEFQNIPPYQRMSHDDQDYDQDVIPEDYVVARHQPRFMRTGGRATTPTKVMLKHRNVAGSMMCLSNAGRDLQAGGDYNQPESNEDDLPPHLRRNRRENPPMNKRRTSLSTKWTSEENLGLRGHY

Keap1/Nrf2 = Keap1/Nrf2 (Homo sapiens, UniProt Q14145); test: disruptors of Keap1 binding to Nrf2 peptide – biochemical, fluorescence polarization, cherry-picked samples, dose response (AID 588683)
[6] = molecular target: T2, Long-chain-fatty-acid--AMP ligase FadD28 (Mycobacterium tuberculosis, UniProt P9WQ59); test: Fluorescence polarization aasay to screen for inhibitors that compete for the binding of FadD28 to a bisubstrate Measured in Biochemical System Using Plate Reader - 2147-01_Inhibitor_Dose_CherryPick_Activity.; type: functional, Mycobacterium tuberculosis H37Rv
T2 sequence (P9WQ59 whole entry): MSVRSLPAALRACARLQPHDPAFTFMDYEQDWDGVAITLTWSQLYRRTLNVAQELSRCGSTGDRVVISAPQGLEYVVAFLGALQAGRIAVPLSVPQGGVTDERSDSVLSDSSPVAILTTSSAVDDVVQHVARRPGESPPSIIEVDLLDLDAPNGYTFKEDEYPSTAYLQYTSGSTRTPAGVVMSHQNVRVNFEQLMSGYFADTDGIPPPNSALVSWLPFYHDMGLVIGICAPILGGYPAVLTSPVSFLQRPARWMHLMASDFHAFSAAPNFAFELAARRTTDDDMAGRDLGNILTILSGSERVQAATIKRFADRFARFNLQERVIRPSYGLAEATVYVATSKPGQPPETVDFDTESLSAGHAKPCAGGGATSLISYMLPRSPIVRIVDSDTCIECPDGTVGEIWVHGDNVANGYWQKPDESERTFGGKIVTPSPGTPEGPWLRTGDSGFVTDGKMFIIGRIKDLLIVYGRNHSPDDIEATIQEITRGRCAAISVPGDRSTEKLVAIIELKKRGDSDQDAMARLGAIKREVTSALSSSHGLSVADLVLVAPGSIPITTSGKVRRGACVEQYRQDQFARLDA

[7] = molecular target: T3, RNA-binding protein pos-1 (Caenorhabditis elegans, UniProt G5EF15); test: disruptors of C. elegans POS-1 RNA interaction – biochemical, fluorescence polarization, dose response (AID 1964);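 also: purified POS-1 fused to maltose binding protein made in E. coli; potency of compounds blocking POS-1 binding to fluorescent RNA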
T3 sequence (G5EF15 whole entry): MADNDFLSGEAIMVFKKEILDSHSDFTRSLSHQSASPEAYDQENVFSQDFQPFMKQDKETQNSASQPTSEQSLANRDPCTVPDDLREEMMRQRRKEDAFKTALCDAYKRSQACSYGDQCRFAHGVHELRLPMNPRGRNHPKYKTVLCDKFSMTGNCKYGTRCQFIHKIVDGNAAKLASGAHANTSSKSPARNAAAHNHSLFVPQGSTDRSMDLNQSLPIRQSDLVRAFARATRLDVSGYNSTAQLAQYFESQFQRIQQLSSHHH

Caspase-6 = molecular target: T4, Caspase-6 (Homo sapiens, UniProt P55212); test: inhibition of CASP6 peptide cleavage – biochemical, VEID-R110 fluorescence, cherry-pick, dose response (AID 720632)
T4 sequence (P55212 whole entry): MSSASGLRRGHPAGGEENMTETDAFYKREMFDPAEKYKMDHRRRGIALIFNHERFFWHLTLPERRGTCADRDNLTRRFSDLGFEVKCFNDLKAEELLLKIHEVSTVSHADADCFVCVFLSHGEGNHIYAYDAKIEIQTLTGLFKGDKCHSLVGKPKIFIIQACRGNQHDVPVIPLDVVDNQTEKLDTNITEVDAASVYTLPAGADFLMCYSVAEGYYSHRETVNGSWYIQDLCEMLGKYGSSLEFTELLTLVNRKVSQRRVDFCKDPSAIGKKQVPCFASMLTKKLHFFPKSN

HeLa = test: viability loss in HeLa cells – cell-based, 24 h, cherry-picked samples, cytotoxicity control, dose response (AID 504726); type: functional; conditions: Homo sapiens;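 also: potency for cytotoxicity as loss of luminescence signal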
Coagulation factor XII = molecular target: T5, Coagulation factor XII (Homo sapiens, UniProt P00748); type: functional;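 also: activated factor XIIa alpha cleaving a fluorogenic AMC peptide substrate; inhibitor potency from loss of enzyme activity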
T5 sequence (P00748 whole entry): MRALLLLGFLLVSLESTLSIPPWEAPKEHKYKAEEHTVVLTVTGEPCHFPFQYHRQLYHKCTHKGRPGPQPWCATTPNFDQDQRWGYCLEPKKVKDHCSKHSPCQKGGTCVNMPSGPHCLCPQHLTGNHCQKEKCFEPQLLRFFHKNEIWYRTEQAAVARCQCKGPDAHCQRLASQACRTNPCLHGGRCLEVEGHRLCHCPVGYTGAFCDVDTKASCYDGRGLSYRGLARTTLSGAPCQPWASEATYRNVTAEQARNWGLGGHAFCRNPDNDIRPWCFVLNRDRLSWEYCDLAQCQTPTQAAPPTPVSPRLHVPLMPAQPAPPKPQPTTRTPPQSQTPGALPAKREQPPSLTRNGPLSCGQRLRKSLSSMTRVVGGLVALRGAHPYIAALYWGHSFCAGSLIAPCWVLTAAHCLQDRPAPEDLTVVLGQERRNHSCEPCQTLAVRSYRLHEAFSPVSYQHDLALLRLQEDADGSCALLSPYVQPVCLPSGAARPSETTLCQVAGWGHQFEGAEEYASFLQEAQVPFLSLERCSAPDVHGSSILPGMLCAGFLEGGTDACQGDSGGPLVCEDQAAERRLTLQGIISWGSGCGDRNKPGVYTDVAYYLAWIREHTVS

[8] = molecular target: T6, Tyrosine-protein phosphatase non-receptor type 7 (Homo sapiens, UniProt P35236); test: SAR analysis of chemical inhibitors of HePTP using a Fluorescent assay - Set 2. [Related pubchem assays (depositor defined):AID1059, AID1077, AID1661, AID2085, AID521]; type: functional
T6 sequence (P35236 whole entry): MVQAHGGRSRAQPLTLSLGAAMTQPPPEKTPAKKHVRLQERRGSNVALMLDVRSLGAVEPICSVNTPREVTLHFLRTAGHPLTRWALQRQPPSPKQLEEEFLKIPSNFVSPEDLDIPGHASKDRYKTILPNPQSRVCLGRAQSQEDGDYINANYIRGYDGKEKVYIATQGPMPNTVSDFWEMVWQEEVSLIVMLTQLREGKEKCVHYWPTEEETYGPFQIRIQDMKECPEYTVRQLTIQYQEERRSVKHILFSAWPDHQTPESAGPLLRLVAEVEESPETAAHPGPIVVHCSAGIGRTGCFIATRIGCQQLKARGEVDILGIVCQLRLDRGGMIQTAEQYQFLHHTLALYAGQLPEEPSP

[9] = molecular target: Eukaryotic translation initiation factor 4E (Mus musculus, UniProt P63073); test: blockers of eIF4G binding by eIF4E – biochemical, TR-FRET, dose response (AID 855); type: functional;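 also: potency for disrupting eIF4E binding to eIF4GI seen as loss of FRET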
[10] = molecular target: Dual specificity protein phosphatase 3 (Homo sapiens, UniProt P51452); test: SAR VHR1 Fluorescent Assay for In Vitro dose response studies Set 2. [Related pubchem assays (depositor defined):AID1654, AID1661, AID1878]; type: functional
[11] = molecular target: Induced myeloid leukemia cell differentiation protein Mcl-1 (Homo sapiens, UniProt Q07820); type: functional
[12] = molecular target: T7, Heat shock 70 kDa protein 1A (Homo sapiens, UniProt P0DMV8); test: small-molecule inhibition of Hsp70 – biochemical, TR-FRET (AID 786)
[13] = Luminescence Cell-Based Dose Response HTS to Identify Activators of Luciferase Translation or Activity in H4 […] Cells. [Related pubchem assays: 1829 (Project Summary), 1814 (Primary HTS)]; type: functional
[14] = Luminescence Cell-Based Dose Confirmation HTS to Identify Activators of 5'UTR Stem-Loop Driven Alpha-Synuclein mRNA Translation in H4 Neuroglioblastoma Cells. [Related pubchem assays: 1829 (Project Summary), 1814 (Primary HTS)]; type: functional
[15] = molecular target: T7, Heat shock 70 kDa protein 1A; test: small molecules displacing fluorescent ligand from Hsp70 – biochemical, fluorescence polarization, primary screen (AID 583)
Troponin, cardiac muscle = Troponin, cardiac muscle (Homo sapiens, UniProt P19429+P45379+P63316); test: compounds desensitizing RTF to calcium – biochemical, fluorescence, cardiac regulated thin filaments, triplicate IC50, dose response (AID 504742); type: protein-complex assay
[16] = molecular target: Glutathione-S-transferase (Schistosoma japonicum, UniProt Q26513); test: GST-antibody interaction or FRET quenching – biochemical, TR-FRET, artefact control for Vif-APOBEC3G degradation inhibitor project, dose response (AID 1117362); type: functional
H4 = test: Luminescence Cell-Based Dose Response HTS to Identify Activators of 5'UTR Stem-Loop Driven Prion Protein mRNA Translation in H4 Neuroglioblastoma Cells. [Related pubchem assays: 1829 (Project Summary), 1814 (Primary HTS)]; type: functional; conditions: Homo sapiens
[17] = molecular target: T6, Tyrosine-protein phosphatase non-receptor type 7; test: redox-active compounds inhibiting HePTP phosphatase – biochemical, fluorescence, mechanism study (AID 2068); type: functional
Trypanosoma cruzi = test: anti-trypanosomal activity in host cells – cell-based, plate reader, dry powder, set 3, dose response (AID 493197); type: functional
[18] = NIH/3T3 cell viability loss – mouse embryonic fibroblasts, dry powder, set 2, cytotoxicity control, dose response (AID 493247); type: functional, cell-based; conditions: Fibroblast
[19] = molecular target: Eukaryotic translation initiation factor 4H (Homo sapiens, UniProt Q15056); test: inhibitors of translation initiation factor eIF4H – SAR follow-up (AID 435011); type: functional
[20] = molecular target: Polyadenylate-binding protein 1 (Homo sapiens, UniProt P11940); test: PABP inhibition in translation initiation, SAR follow-up (AID 435018); type: functional
[21] = molecular target: Potassium voltage-gated channel subfamily KQT member 2 (Rattus norvegicus, UniProt O88943); test: potentiation of rat KCNQ2 current – cell-based, retigabine-insensitive compounds, dose response (AID 2654); type: functional

T7 sequence (P0DMV8 whole entry): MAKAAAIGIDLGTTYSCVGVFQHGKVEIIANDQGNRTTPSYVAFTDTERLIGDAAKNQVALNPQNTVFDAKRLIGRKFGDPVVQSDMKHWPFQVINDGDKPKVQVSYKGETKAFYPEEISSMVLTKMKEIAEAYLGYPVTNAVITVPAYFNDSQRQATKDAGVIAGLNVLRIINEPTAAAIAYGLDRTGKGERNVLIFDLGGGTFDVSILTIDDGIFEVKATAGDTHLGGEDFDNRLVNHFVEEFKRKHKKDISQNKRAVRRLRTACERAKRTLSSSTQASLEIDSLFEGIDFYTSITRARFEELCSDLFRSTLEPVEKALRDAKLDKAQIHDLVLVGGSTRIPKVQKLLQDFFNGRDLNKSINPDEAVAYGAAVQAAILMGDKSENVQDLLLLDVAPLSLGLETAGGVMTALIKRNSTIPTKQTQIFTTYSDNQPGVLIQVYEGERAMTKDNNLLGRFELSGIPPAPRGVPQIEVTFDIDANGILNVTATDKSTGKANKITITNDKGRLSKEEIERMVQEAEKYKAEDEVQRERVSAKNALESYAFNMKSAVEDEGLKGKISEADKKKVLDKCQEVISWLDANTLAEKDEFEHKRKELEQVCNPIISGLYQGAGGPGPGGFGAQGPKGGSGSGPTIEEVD
Eukaryotic translation initiation factor 4E, sequence (P63073 whole entry): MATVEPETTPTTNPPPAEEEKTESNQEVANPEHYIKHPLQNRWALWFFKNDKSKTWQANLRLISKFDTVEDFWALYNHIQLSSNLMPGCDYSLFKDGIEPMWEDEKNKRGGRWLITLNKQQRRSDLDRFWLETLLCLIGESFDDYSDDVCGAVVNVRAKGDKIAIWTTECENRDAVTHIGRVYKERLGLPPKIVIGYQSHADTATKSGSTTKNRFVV
Large T antigen, sequence (P03070 whole entry): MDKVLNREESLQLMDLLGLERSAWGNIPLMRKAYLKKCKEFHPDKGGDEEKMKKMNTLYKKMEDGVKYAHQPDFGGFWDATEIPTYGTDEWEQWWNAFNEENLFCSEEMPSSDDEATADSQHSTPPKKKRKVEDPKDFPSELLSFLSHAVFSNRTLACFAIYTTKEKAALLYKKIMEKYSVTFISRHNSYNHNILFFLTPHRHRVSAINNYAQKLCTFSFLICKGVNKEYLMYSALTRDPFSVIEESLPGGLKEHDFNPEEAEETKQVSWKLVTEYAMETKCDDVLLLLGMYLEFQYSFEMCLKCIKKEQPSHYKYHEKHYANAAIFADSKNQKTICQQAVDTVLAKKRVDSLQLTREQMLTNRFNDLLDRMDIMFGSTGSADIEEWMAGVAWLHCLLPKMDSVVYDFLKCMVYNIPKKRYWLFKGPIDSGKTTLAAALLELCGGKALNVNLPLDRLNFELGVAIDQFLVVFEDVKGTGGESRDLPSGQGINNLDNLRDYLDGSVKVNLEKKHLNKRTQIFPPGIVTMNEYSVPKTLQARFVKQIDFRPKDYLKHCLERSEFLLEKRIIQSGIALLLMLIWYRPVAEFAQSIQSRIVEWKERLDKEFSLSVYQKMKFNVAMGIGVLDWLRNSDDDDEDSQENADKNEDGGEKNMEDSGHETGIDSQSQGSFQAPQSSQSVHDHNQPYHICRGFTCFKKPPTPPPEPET
Polyadenylate-binding protein 1, sequence (P11940 whole entry): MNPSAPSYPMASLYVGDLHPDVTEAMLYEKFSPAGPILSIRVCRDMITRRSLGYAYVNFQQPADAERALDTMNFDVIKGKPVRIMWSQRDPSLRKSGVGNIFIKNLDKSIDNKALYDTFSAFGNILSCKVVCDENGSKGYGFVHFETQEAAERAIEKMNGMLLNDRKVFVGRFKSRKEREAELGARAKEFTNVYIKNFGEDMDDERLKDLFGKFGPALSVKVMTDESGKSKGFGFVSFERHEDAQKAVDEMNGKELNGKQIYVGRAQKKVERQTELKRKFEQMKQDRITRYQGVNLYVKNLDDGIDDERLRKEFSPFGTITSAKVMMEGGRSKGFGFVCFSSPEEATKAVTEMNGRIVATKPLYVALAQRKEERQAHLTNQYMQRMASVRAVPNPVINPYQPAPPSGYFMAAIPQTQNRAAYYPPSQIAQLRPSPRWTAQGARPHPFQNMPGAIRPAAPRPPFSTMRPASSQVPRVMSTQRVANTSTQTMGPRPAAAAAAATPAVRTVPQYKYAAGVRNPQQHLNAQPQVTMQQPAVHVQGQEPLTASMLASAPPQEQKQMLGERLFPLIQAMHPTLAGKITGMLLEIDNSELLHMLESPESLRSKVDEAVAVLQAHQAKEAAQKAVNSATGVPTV
Glutathione-S-transferase, sequence (Q26513 whole entry): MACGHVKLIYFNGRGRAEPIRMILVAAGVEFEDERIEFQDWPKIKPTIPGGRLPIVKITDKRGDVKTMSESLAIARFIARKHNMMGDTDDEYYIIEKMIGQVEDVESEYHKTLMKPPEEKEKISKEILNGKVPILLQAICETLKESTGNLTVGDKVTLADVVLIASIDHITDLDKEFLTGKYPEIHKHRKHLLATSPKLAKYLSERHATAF
Keap1/Nrf2, sequence (Q16236 whole entry): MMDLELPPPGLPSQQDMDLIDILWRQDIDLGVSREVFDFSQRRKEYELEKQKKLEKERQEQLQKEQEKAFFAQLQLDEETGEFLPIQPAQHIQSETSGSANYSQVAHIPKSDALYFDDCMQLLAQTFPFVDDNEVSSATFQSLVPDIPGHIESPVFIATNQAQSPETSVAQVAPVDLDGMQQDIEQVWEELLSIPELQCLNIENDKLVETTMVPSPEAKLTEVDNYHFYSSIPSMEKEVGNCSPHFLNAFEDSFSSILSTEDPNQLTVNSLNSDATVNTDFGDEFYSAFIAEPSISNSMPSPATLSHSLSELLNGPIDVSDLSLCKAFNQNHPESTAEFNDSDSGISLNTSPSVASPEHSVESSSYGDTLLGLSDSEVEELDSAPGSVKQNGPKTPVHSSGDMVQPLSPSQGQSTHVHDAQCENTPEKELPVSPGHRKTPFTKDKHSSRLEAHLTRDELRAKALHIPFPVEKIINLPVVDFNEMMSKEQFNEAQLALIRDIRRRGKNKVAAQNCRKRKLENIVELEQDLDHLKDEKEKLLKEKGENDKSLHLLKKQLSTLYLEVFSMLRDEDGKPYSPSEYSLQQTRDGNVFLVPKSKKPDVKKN
Keap1/Nrf2, sequence (Q14145 whole entry): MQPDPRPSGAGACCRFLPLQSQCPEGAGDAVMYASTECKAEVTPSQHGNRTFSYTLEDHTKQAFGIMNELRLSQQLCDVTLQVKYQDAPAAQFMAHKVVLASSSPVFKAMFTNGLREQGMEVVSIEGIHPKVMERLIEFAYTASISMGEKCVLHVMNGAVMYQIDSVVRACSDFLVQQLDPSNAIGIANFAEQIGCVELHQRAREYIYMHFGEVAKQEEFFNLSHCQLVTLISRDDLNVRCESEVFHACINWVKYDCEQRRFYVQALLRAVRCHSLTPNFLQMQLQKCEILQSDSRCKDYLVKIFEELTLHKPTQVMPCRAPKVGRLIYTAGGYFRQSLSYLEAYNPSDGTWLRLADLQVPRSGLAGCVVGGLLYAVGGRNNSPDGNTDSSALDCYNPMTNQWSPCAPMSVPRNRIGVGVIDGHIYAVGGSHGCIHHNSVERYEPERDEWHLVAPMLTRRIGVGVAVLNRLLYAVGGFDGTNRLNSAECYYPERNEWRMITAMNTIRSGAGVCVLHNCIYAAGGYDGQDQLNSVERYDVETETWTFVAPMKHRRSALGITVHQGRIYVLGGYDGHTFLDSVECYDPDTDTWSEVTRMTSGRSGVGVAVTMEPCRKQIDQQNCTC
Protein phosphatase methylesterase 1, sequence (Q9Y570 whole entry): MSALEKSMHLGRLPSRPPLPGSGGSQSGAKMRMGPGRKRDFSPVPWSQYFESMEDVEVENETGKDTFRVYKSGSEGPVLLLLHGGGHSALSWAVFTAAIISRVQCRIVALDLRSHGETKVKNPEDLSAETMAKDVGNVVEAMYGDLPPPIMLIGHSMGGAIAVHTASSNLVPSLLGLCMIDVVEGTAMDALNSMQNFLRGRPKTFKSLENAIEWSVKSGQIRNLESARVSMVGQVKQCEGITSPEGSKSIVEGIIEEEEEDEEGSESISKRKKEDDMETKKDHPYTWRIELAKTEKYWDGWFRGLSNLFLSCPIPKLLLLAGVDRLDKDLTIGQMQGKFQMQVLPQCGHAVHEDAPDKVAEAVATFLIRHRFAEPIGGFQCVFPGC
Induced myeloid leukemia cell differentiation protein Mcl-1, sequence (Q07820 whole entry): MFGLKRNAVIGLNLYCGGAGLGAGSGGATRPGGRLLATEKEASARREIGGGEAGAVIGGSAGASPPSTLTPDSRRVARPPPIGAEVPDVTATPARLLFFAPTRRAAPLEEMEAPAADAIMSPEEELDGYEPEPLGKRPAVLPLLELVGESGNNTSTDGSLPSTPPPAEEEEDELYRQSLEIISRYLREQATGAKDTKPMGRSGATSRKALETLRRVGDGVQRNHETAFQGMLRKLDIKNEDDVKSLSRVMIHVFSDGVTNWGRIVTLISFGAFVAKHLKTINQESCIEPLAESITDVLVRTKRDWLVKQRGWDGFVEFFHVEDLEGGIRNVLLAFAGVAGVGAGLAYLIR
Dual specificity protein phosphatase 3, sequence (P51452 whole entry): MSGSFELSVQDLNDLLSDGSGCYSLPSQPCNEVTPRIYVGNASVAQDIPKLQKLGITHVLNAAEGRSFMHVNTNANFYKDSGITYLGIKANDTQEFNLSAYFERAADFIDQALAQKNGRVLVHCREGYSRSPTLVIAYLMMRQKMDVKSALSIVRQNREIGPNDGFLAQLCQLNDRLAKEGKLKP

CNC(CC(=O)c1ccc([N+](=O)[O-])cc1)C(Cl)(Cl)Cl (stereo not drawn)
CC50 [1]: > 40 µM (active) | IC50 (Beta-galactosidase): > 66.6 µM (inactive) | AC50 [2]: 2.3 µM (active)

CS(=O)(=O)/C(C#N)=C/c1cccn1S(=O)(=O)c1cccc2ccccc12
IC50 [3]: > 20 µM (inactive)

NS(=O)(=O)c1ccc(N=Nc2cnc(O)c(O)c2)cc1
IC50 (Large T antigen): 27.5 µM (active) | AC50 [4]: 135 µM (active) | AC50 (ORF 73): 19.5 µM (active) | EC50 [5]: 0.421 µM (active) | AC50 (Keap1/Nrf2): 17.1 µM (active) | AC50 [6]: 22.8 µM (active) | EC50 [7]: 5.41 µM (active) | AC50 (Caspase-6): 3.44 µM (active) | AC50 (HeLa): 43.8 µM (active)

Nc1c(C(=O)NCc2cccnc2)sc(=S)n1-c1ccccc1
IC50 (Coagulation factor XII): > 50 µM (inactive) | IC50 [8]: > 100 µM (inactive) | IC50 [9]: > 64 µM (inactive) | IC50 [10]: 78 µM (active)

O=C(Nc1ccc2nc(-c3ccco3)c(-c3ccco3)nc2c1)NC1CC1
IC50 [11]: 2.92 µM (active) | IC50 (Large T antigen): 39.6 µM (active) | IC50 [12]: > 100 µM (not active) | EC50 [13]: 13.2 µM (active) | EC50 [14]: > 120 µM (not active) | IC50 [15]: 73.3 µM (active) | IC50 (Troponin, cardiac muscle): 47.5 µM (inactive) | IC50 [16]: 75.5 µM (active) | IC50 [9]: 33.1 µM (inactive) | EC50 (H4): > 120 µM (not active) | IC50 [17]: 1.34 µM (active)

COc1ccc(CCN(C)C(=O)C2CCCN(Cc3ccccc3Cl)C2)cc1OC (stereo not drawn)
AC50 (Trypanosoma cruzi): 13.7 µM (active) | AC50 [18]: 46.8 µM (active)

COc1ccc(C(=O)N/N=C\c2ccc(OCC(=O)Nc3ccc(C)c(C)c3)c(OC)c2)cc1
IC50 [19]: > 100 µM (inactive) | IC50 [20]: > 100 µM (inactive)

O=C(NCc1ccc(Cl)cc1Cl)Nc1ccc(F)nc1
EC50 [21]: 6.31 µM (active)

From ChEMBL document CHEMBL1201862, “PubChem BioAssay data set” (2004)
